Results from PubChem BioAssay AID2060606 (Molecular Pharmacology Branch, DTP, NCI, 2025).

System: 922993-354-T-J3-PDC complex spheroids, viability, % test/control
Assay: Anticancer human tumor 922993-354-T-J3-PDC patient-derived endometrial carcinoma cell line growth inhibition [CLK]
Conditions: for IC50: curve of first compound; for viability, T/C: stronger effect = lower value
Description: A high-throughput screen of multi-cell type tumor spheroids was designed to identify active combinations of […] and targeted small molecules. Complex spheroids include a stromal component modeled by human endothelial cells (HUVEC) and fibroblasts modeled by human mesenchymal stem cells (MSCs). The concentration ranges selected for each drug and investigational agent were based upon clinically achievable concentrations if the clinical Cmax of the agent was known.
Compounds. The drugs and investigational agents: cirtuvivint (SM08502; NSC835563), CC-671 (NSC850746), vemurafenib (NSC761431), tapotoclax (NSC804041), sotorasib (NSC818433), adagrasib (NSC831453), MRTX-1133 (NSC836407), BAY2416964 (NSC825713), copanlisib (NSC816437), inavolisib (NSC800729), abemaciclib (NSC768073), osimertinib (NSC779217), entinostat (NSC756642), eltanexor (KPT-8602, NSC794443), venetoclax (NSC766270), ceralasertib (NSC777638), bortezomib (NSC756655), olaparib (NSC753686), talazoparib (NSC767125), alisertib (NSC759677), peposertib (NSC802822), gemcitabine (NSC613327), 5-fluorouracil (NSC19893), SN-38 (NSC673596), oxaliplatin (NSC266046), paclitaxel (NSC125973), and doxorubicin (NSC123127), were obtained from the National Cancer Institute (NCI) Developmental Therapeutics Program Chemical Repository. The FDA-approved anticancer drug set is available from the Developmental Therapeutics Program at https://dtp.cancer.gov/organization/dscb/obtaining/available plates.htm. […] The stock solutions were prepared in dimethyl sulfoxide (DMSO, Sigma-Aldrich, St. Louis, MO, cat. D2650), except for the platinum complexes which were prepared in saline (Quality Biological, Gaithersburg, MD, cat. 114-055-101), at 800-fold the tested concentration and stored at -70 degrees C prior to their use. All drugs and investigational agents were tested over a range starting from a high concentration at or near the clinical Cmax and decreasing in half-log increments. If the clinical Cmax for an agent had not been determined, the highest concentration tested was 10 microM.
Cell Culture. All cells were maintained in an incubator at 37 degrees C and 5% CO2 with 95% humidity. The PDC lines were cultured according to standard operating procedures established by the NCI PDMR. Briefly, all PDCs were thawed and cultured in Matrigel-coated flasks prepared with a working solution of 1X Ham's F-12 nutrient mix, without supplementation (Invitrogen, Waltham, MA, cat. 11765054), 100 U/mL penicillin-streptomycin (Invitrogen, cat. 15140122), and 2.5% Matrigel (Corning Inc., Corning, NY, cat. 354248) for the first three passages. The 947758-054-R-J2-PDC line was cultured in 6B/Colon 1A media, which includes advanced DMEM/F-12 (Thermo Fisher Scientific, cat. 12634028), 10 mM HEPES (Thermo Fisher Scientific, cat. 15630080), 1X GlutaMAX supplement (Thermo Fisher Scientific, cat. 35050061), 0.1 mg/mL primocin (InvivoGen, cat. ant-pm-2), 10% defined fetal bovine serum, heat inactivated (HyClone Laboratories Inc., cat. SH30070.03HI), 1.25 mM N-Acetyl-L-cysteine (Sigma-Aldrich, cat. A9165), 10 mM nicotinamide (Sigma-Aldrich, cat. N0636), 1X B-27 supplement (Thermo Fisher Scientific, cat. 17504044), 1X N-2 supplement (Thermo Fisher Scientific, cat. 17502048), and 10 microM Y-27632 dihydrochloride (Tocris Bioscience, cat. 1254). The 876862-298-R-J1-PDC was cultured in 6E media, which includes all 6B/Colon 1A media components plus 50% L-WRN conditioned media (ATCC, cat. CRL-3276), 50 ng/mL recombinant human EGF recombinant protein (hEGF; Thermo Fisher Scientific, cat. PHG0311), 10 ng/mL recombinant human fibroblast growth factor 10 (hGFG-10; PeproTech, cat. 100-26), 1 ng/mL recombinant human fibroblast growth factor 2 (hFGF-2; PeproTech, cat. 100-18B), and 1 µM prostaglandin E2 (PGE2; Tocris, cat. 2296). The 227483-062-R1-J1-PDC line was cultured in Panc media, containing all 6E components except hFGF-2, with the addition of 500 nM SB-431542 (Selleckchem, cat. S1067) and 10 nM gastrin (Tocris, cat. 3006). […]

[1] = second compound 0.0316 µM, first compound 0.0316 µM
[2] = second compound 0.0316 µM, first compound 0.1 µM
[3] = second compound 0.0316 µM, first compound 0.316 µM
[4] = second compound 0.0316 µM, first compound 1 µM
[5] = second compound 0.1 µM, first compound 0.0316 µM
[6] = second compound 0.1 µM, first compound 0.1 µM
[7] = second compound 0.1 µM, first compound 0.316 µM
[8] = second compound 0.1 µM, first compound 1 µM
[9] = second compound 0.316 µM, first compound 0.0316 µM
[10] = second compound 0.316 µM, first compound 0.1 µM
[11] = second compound 0.316 µM, first compound 0.316 µM
[12] = second compound 0.316 µM, first compound 1 µM
[13] = second compound 1 µM, first compound 0.0316 µM
[14] = second compound 1 µM, first compound 0.1 µM
[15] = second compound 1 µM, first compound 0.316 µM
[16] = second compound 1 µM, first compound 1 µM
[17] = second compound 3.16 µM, first compound 0.0316 µM
[18] = second compound 3.16 µM, first compound 0.1 µM
[19] = second compound 3.16 µM, first compound 0.316 µM
[20] = second compound 3.16 µM, first compound 1 µM
[21] = second compound 10 µM, first compound 0.0316 µM
[22] = second compound 10 µM, first compound 0.1 µM
[23] = second compound 10 µM, first compound 0.316 µM
[24] = second compound 10 µM, first compound 1 µM
[25] = second compound 0.0316 µM, first compound 0.00316 µM
[26] = second compound 0.0316 µM, first compound 0.01 µM
[27] = second compound 0.1 µM, first compound 0.00316 µM
[28] = second compound 0.1 µM, first compound 0.01 µM
[29] = second compound 0.316 µM, first compound 0.00316 µM
[30] = second compound 0.316 µM, first compound 0.01 µM
[31] = second compound 1 µM, first compound 0.00316 µM
[32] = second compound 1 µM, first compound 0.01 µM
[33] = second compound 3.16 µM, first compound 0.00316 µM
[34] = second compound 3.16 µM, first compound 0.01 µM
[35] = second compound 10 µM, first compound 0.00316 µM
[36] = second compound 10 µM, first compound 0.01 µM
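Also: spheroids exposed to the agents for 7 days before readout.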

CC(Nc1ccc2c(c1)OCCn1cc(N3C(=O)OCC3C(F)F)nc1-2)C(N)=O (stereo unspecified) + CN1CCN(c2cc(C(=O)Nc3cc4cc(-c5cnn(C)c5)ccc4cn3)ccn2)CC1
IC50 (second compound 0.0316 µM): 2730 nM | IC50 (second compound 0.1 µM): 1120 nM | IC50 (second compound 0.316 µM): 59.6 nM | IC50 (second compound 1 µM): < 31.6 nM | IC50 (second compound 3.16 µM): < 31.6 nM | IC50 (second compound 10 µM): < 31.6 nM | viability, T/C [1]: 110% | viability, T/C [2]: 105% | viability, T/C [3]: 84.8% | viability, T/C [4]: 67.8% | viability, T/C (second compound 0.0316 µM, first compound 3.16 µM): 48.7% | viability, T/C (second compound 0.0316 µM, first compound 10 µM): 25.6% | viability, T/C [5]: 109% | viability, T/C [6]: 97.6% | viability, T/C [7]: 91% | viability, T/C [8]: 50.3% | viability, T/C (second compound 0.1 µM, first compound 3.16 µM): 34.7% | viability, T/C (second compound 0.1 µM, first compound 10 µM): 27.2% | viability, T/C [9]: 49.6% | viability, T/C [10]: 55% | viability, T/C [11]: 28.7% | viability, T/C [12]: 23.4% | viability, T/C (second compound 0.316 µM, first compound 3.16 µM): 16.8% | viability, T/C (second compound 0.316 µM, first compound 10 µM): 6.83% | viability, T/C [13]: 0.15% | viability, T/C [14]: 0.13% | viability, T/C [15]: 1.42% | viability, T/C [16]: 0.08% | viability, T/C (second compound 1 µM, first compound 3.16 µM): 0.07% | viability, T/C (second compound 1 µM, first compound 10 µM): 1.09% | viability, T/C [17]: 0.09% | viability, T/C [18]: 0.57% | viability, T/C [19]: 0.75% | viability, T/C [20]: 0.83% | viability, T/C (second compound 3.16 µM, first compound 3.16 µM): 1.91% | viability, T/C (second compound 3.16 µM, first compound 10 µM): 1.61% | viability, T/C [21]: 0.09% | viability, T/C [22]: 0.13% | viability, T/C [23]: 1.44% | viability, T/C [24]: 0.18% | viability, T/C (second compound 10 µM, first compound 3.16 µM): 1.19% | viability, T/C (second compound 10 µM, first compound 10 µM): 1.25%

CCN1CCN(Cc2ccc(Nc3ncc(F)c(-c4cc(F)c5nc(C)n(C(C)C)c5c4)n3)nc2)CC1 + CN1CCN(c2cc(C(=O)Nc3cc4cc(-c5cnn(C)c5)ccc4cn3)ccn2)CC1
IC50 (second compound 0.0316 µM): > 1000 nM | IC50 (second compound 0.1 µM): > 1000 nM | IC50 (second compound 0.316 µM): < 3.16 nM | IC50 (second compound 1 µM): < 3.16 nM | IC50 (second compound 3.16 µM): < 3.16 nM | IC50 (second compound 10 µM): < 3.16 nM | viability, T/C [25]: 106% | viability, T/C [26]: 110% | viability, T/C [1]: 87.4% | viability, T/C [2]: 83.3% | viability, T/C [3]: 58.9% | viability, T/C [4]: 57.3% | viability, T/C [27]: 88.1% | viability, T/C [28]: 91.8% | viability, T/C [5]: 75.8% | viability, T/C [6]: 66.4% | viability, T/C [7]: 58.8% | viability, T/C [8]: 60.5% | viability, T/C [29]: 46.5% | viability, T/C [30]: 37% | viability, T/C [9]: 34.4% | viability, T/C [10]: 37% | viability, T/C [11]: 36.4% | viability, T/C [12]: 38.6% | viability, T/C [31]: 0.13% | viability, T/C [32]: 0.79% | viability, T/C [13]: 0.77% | viability, T/C [14]: 0.13% | viability, T/C [15]: 1.01% | viability, T/C [16]: 0.64% | viability, T/C [33]: 0.1% | viability, T/C [34]: 1.24% | viability, T/C [17]: 0.11% | viability, T/C [18]: 0.13% | viability, T/C [19]: 0.16% | viability, T/C [20]: 0.84% | viability, T/C [35]: 0.13% | viability, T/C [36]: 0.16% | viability, T/C [21]: 1.7% | viability, T/C [22]: 0.15% | viability, T/C [23]: 2.3% | viability, T/C [24]: 2.5%

COc1c(OCCCN2CCOCC2)ccc2c3n(c(=NC(=O)c4cnc(N)nc4)nc12)CCN3 + CN1CCN(c2cc(C(=O)Nc3cc4cc(-c5cnn(C)c5)ccc4cn3)ccn2)CC1
IC50 (second compound 0.0316 µM): 148 nM | IC50 (second compound 0.1 µM): 151 nM | IC50 (second compound 0.316 µM): < 3.16 nM | IC50 (second compound 1 µM): < 3.16 nM | IC50 (second compound 3.16 µM): < 3.16 nM | IC50 (second compound 10 µM): < 3.16 nM | viability, T/C [25]: 112% | viability, T/C [26]: 116% | viability, T/C [1]: 86.5% | viability, T/C [2]: 59.7% | viability, T/C [3]: 32.2% | viability, T/C [4]: 9.62% | viability, T/C [27]: 91.7% | viability, T/C [28]: 99.9% | viability, T/C [5]: 89.9% | viability, T/C [6]: 58.1% | viability, T/C [7]: 32.4% | viability, T/C [8]: 12.1% | viability, T/C [29]: 48.1% | viability, T/C [30]: 47.9% | viability, T/C [9]: 39.8% | viability, T/C [10]: 18.8% | viability, T/C [11]: 6.2% | viability, T/C [12]: 2.87% | viability, T/C [31]: 0.13% | viability, T/C [32]: 1.13% | viability, T/C [13]: 0.12% | viability, T/C [14]: 0.08% | viability, T/C [15]: 1.11% | viability, T/C [16]: 0.77% | viability, T/C [33]: 0.42% | viability, T/C [34]: 0.12% | viability, T/C [17]: 0.38% | viability, T/C [18]: 0.15% | viability, T/C [19]: 1.16% | viability, T/C [20]: 1.38% | viability, T/C [35]: 0.08% | viability, T/C [36]: 0.15% | viability, T/C [21]: 1.41% | viability, T/C [22]: 0.15% | viability, T/C [23]: 3.12% | viability, T/C [24]: 2.42%
